Measurements as given in PMC8471380 (Molecules, 2021).
Structures can show the parent of a compound that is named as a salt.

How the values were obtained:
equine serum BChE = molecular target: T1, equine serum BChE (Equus caballus, UniProt P81908); experiment: biochemical; settings: mean ± SEM, n = 3; for IC50: 5 min incubation
T1 construct: equine serum BChE; purchased Sigma; host or cells: equine serum
Procedure: (§1) Reagents blanks consisted of reaction mixtures without substrates. […] Final enzyme and substrate concentrations were 0.02 unit/mL and 1 mM, respectively. Assays were carried out with a blank containing all constituents except porcine CES to assess non-enzymatic hydrolysis. The measurements were performed on a FLUOstar OPTIMA multifunctional microplate reader (BMG LABTECH, Ortenberg, Germany). The compounds were dissolved in DMSO. The incubation mixture contained 2% (v/v) of the solvent. […] The sample of the appropriate enzyme was incubated with the test compound for 5 min, and then the residual enzymatic activity was determined. Each experiment was performed in triplicate. […] Each experiment was performed in triplicate. The IC50 values were calculated with Origin 6.1 software.

[1] = molecular target: T2, ifenprodil-binding site of NMDA receptor (NR2B subunit) (Rattus norvegicus, UniProt P35439+Q00960); experiment: Radioligand binding assay, [3H]ifenprodil displacement
T2 construct: from tissue; host or cells: rat hippocampus membranes
Procedure: (§2) The effect of the test compounds on radioligand binding to NMDA receptors was evaluated by a modified method, as previously reported [83]. The following two radioligands were used: [^3H] […] A hippocampal membrane preparation for the radioligand binding assay was made as described previously [86, 87]. The obtained membrane pellet was resuspended in a working buffer (5 mM HEPES/4.5 mM Tris, pH 7.6 at 4 °C) in a ratio of 1:5 and stored in liquid nitrogen. The reaction mixture (the final volume was 0.5 mL) contained the working buffer (200 μL), a 50 nM radioligand solution (50 μL) and the membrane suspension (250 μL). The nonspecific binding was evaluated in the presence of 1 mM of the unlabeled ligand (50 μL).
(§3) For the binding assay, the reaction mixture was incubated at room temperature for 2 h. After the incubation, the samples were filtered through GF/B glass fiber filters (Whatman), washed with the working buffer, dried and transferred to scintillation vials. Then the scintillation fluid (5 mL), which is composed of diphenyloxazole (PPO) (4 g) and bis(5-phenyl-2-oxazolyl)benzene (POPOP) (0.2 g) in toluene (1 L) were added to the vials.
(§4) The effect of the test compounds on the binding of [^3H] […] The values of Ki were calculated according to a previously described method [88].

[2] = tested on: tubulin and microtubule-associated proteins (Tb+MAP); experiment: GTP-dependent Tb+MAP polymerization; format: biochemical, mouse; settings: 100 µM compound; for Rate of Tb+MAP Polymerization (dA355/dt): 0.1 mM GTP, 37 °C
Description: A crude fraction of tubulin and microtubule-associated proteins (Tb+MAP) was isolated from mouse brain tissue by a polymerization–depolymerization method. The procedure of mouse euthanasia using cervical dislocation for Tb+MAP preparation is in compliance with the Guidelines for Animal Experiments, which were approved by the local bioethics committee of the IPAC RAS. The freshly dissected brain was immediately placed on ice, cleared of meninges and surface blood vessels, and washed with cold buffer A (50 mM Tris-HCl, pH 6.9 at 4 °C, 2 mM EGTA). The extracted brain tissue was homogenized under ice cooling in the same buffer using a Potter S homogenizer (Sartorius). The resulting homogenate was centrifuged at 10,000× g for 30 min on an Avanti 25 centrifuge (Beckman) using a JA-14 rotor for the precipitation of non-ruptured cells. The precipitate was discarded, and the supernatant was again centrifuged at 100,000× g for 60 min at 4 °C on an Optima MAX XP centrifuge (Beckman) using a MLA-50 rotor. The precipitate was again discarded. The protein concentration in the supernatant was determined by the Bradford assay using the Bio-Rad Protein Assay kit (Bio-Rad, Hercules, CA, USA) according to manufacturer’s instructions. The resulting supernatant was a cytosolic fraction enriched in microtubular proteins (Tb and MAP).
The Tb+MAP preparation was centrifuged at 5000× g for 10 min at 4 °C immediately before polymerization in order to remove denatured and aggregated protein molecules by precipitation. The Tb+MAP polymerization was performed at 37 °C in buffer A in the presence of 0.1 mM GTP after addition of 100 µM of test compound or the same volume of vehicle (DMSO). The protein concentration in the sample was 0.2 mg/mL. The polymerization kinetics was monitored on a Victor 3 or EnVision microplate reader (Perkin Elmer, USA) at 355 nm and the stabilized rate of polymerization after the first wave was measured (dA355/dt).

porcine liver CES = molecular target: T3, porcine liver CES (Sus scrofa, UniProt Q29550); experiment: CES inhibition, 4-nitrophenyl acetate hydrolysis; format: biochemical; settings: for inhibition at 20 µM: read-out: % of inhibition of CES with 20 µM concentration of the compound
T3 sequence (Q29550 19-566): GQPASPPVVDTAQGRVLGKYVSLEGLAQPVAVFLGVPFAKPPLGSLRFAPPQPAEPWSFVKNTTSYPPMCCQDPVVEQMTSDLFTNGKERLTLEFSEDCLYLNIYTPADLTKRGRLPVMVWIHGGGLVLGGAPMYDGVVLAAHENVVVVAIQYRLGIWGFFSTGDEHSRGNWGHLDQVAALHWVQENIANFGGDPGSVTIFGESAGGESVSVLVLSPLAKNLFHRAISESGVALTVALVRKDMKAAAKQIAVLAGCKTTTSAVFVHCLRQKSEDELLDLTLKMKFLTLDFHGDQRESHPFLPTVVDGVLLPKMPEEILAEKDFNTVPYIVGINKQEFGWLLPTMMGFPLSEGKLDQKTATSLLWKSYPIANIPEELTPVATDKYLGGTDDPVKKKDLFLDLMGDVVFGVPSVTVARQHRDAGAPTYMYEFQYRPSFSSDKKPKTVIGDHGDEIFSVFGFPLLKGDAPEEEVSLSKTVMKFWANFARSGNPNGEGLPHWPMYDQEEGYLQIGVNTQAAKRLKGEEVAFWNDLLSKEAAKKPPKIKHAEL
Procedure: as §1

[3] = tested on: isolated rat liver mitochondria; experiment: Ca2+-induced mitochondrial swelling (MPT pore opening); format: biochemical; settings: 30 µM compound; 12.5 µM Ca2+; 10 mM glutamate, 2 mM malate, 10 mM succinate; percentage relative to the reference compound
Procedure: Experiments were performed using outbred male rats weighing 200–220 g. The animals were housed under standard vivarium conditions in a normal day/night cycle and had ad libitum access to water and food. The procedure of rat euthanasia using carbon dioxide (CO2) inhalation for mitochondria preparation is in compliance with the Guidelines for Animal Experiments, which were approved by the local bioethics committee of the IPAC RAS.
Rat liver mitochondria were isolated by conventional differential centrifugation. Membrane potential of rat liver mitochondria was measured using the potential-sensitive fluorescent probe Safranine A on a Victor 3 multilabel plate reader (Perkin Elmer, Waltham, MA, USA). The fluorescence was recorded at λex = 485 nm and λem = 590 nm. Mitochondrial swelling was measured by spectrophotometry in 96-well clear bottom plates on a Victor 3 microplate reader (Perkin Elmer, Waltham, MA, USA) at 620 nm; CaCl2 was added to induce mitochondrial swelling (MPT opening).

[4] = molecular target: T4, MK-801-binding (intrachannel) site of NMDA receptor (Rattus norvegicus, UniProt P35439); experiment: Radioligand binding assay, [3H]MK-801 displacement
T4 construct: from tissue; host or cells: rat hippocampus membranes
Procedure: as §2, §3, §4

PAS of EeAChE = molecular target: T5, PAS of EeAChE (Electrophorus electricus, UniProt O42275); format: binding; settings: 20 µM compound; 7 µM EeAChE, 8 µM propidium iodide; mean ± SEM, n = 3
T5 construct: AChE from Electrophorus electricus (EeAChE, type VI-S, lyophilized powder); purchased Sigma-Aldrich type VI-S; host or cells: Electrophorus electricus tissue
Procedure: The compounds were evaluated as potential inhibitors of proaggregation activity of AChE by measuring the displacement of propidium iodide from the PAS of the enzyme [53] using a fluorescence method [28]. AChE from Electrophorus electricus (EeAChE, type VI-S, lyophilized powder, Sigma-Aldrich, St. Louis, MO, USA) was used for consistency with our previous studies [8, 13, 63, 74]. The fluorescence intensity of propidium iodide bound to AChE increases several-fold. A decrease in the fluorescence intensity in the presence of the test compounds is indicative of their ability to bind to the AChE PAS and, correspondingly, to inhibit β-amyloid aggregation.
EeAChE (7 µM) was incubated with 20 µM of the test compound in 1 mM Tris-HCl buffer, pH 8.0, at 25 °C for 15 min. Then a solution of propidium iodide was added (final concentration 8 µM), the mixture was incubated for 15 min, and the fluorescence spectrum was recorded (excitation at 530 nm and emission at 600 nm). […] The blank contained propidium iodide at the same concentration in 1 mM Tris-HCl buffer, pH 8.0 at 25 °C. The measurements were performed in triplicate on a FLUOstar OPTIMA multifunctional microplate reader.
The degree of displacement of propidium iodide from the PAS of AChE (% displacement) was calculated by the equation:% displacement = 100 − (IFAChE + Propidium + inhibitor/IFAChE + Propidium) × 100, where IFAChE + Propidium is the fluorescence intensity of propidium iodide bound to EeAChE in the absence of the test compound (taken as 100%), and IFAChE + Propidium + inhibitor is the fluorescence intensity of propidium iodide bound to EeAChE in the presence of the test compound.

human erythrocyte AChE = molecular target: T6, human erythrocyte AChE (Homo sapiens, UniProt P22303); experiment: biochemical; settings: mean ± SEM, n = 3; for IC50: 5 min incubation; for inhibition at 20 µM: read-out: % of inhibition of AChE with 20 µM concentration of the compound, 20 µM compound
T6 construct: commercial human erythrocyte AChE; purchased Sigma; host or cells: human erythrocytes
T6 sequence (P22303 32-617 isoform P22303-2 limits assumed): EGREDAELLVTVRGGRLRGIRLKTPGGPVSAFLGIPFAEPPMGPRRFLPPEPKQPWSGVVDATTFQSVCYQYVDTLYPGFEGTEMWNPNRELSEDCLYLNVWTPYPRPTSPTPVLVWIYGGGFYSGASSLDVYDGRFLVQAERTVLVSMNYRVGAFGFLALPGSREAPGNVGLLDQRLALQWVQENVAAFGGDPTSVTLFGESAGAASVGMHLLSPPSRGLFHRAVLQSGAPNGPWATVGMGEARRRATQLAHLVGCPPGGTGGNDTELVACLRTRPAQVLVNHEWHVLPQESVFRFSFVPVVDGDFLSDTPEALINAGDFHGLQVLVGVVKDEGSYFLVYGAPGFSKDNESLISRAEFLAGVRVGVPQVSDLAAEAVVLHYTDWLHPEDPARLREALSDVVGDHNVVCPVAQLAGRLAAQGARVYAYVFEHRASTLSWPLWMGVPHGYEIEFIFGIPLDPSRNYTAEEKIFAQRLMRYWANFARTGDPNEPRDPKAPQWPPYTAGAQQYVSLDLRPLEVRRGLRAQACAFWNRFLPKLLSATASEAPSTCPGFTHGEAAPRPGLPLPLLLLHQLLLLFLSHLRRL

T2 sequence (Q00960 27-1482, other chains not shown): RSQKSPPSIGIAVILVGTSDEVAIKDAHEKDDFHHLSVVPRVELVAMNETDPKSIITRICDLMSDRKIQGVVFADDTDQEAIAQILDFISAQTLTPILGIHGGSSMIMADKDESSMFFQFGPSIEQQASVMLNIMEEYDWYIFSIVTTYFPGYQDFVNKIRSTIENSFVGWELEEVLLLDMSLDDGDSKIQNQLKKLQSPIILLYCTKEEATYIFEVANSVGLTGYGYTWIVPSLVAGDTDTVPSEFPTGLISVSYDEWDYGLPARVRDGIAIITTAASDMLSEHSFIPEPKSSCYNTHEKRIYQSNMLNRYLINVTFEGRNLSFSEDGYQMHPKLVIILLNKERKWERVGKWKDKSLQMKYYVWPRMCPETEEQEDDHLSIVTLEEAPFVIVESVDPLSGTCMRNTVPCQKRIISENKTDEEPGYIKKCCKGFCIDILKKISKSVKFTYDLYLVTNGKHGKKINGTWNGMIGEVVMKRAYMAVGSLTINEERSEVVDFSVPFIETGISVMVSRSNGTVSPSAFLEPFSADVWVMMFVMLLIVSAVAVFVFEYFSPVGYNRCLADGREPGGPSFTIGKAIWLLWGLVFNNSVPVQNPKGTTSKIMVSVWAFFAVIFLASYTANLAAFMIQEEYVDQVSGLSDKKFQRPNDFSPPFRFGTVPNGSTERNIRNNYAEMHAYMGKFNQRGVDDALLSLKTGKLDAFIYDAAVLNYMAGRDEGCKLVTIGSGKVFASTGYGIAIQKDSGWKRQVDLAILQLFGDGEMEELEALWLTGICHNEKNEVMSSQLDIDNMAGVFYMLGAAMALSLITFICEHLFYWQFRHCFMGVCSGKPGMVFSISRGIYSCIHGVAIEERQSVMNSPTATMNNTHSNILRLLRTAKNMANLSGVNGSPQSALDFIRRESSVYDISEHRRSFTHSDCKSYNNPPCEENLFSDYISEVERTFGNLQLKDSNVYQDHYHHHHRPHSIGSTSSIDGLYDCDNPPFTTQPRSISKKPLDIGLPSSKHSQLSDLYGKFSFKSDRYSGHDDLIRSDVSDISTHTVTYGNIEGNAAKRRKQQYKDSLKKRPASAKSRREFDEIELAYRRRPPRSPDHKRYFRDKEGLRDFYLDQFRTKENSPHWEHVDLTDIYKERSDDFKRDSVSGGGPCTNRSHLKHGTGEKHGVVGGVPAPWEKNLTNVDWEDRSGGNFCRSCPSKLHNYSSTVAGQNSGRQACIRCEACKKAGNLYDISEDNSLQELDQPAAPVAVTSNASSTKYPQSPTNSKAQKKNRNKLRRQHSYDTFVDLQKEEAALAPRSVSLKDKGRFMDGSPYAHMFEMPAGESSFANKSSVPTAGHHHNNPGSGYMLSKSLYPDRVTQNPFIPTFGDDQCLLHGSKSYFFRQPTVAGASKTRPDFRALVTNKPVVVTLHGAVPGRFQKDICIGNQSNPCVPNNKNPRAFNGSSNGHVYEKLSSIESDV
T1 sequence (P81908 whole entry): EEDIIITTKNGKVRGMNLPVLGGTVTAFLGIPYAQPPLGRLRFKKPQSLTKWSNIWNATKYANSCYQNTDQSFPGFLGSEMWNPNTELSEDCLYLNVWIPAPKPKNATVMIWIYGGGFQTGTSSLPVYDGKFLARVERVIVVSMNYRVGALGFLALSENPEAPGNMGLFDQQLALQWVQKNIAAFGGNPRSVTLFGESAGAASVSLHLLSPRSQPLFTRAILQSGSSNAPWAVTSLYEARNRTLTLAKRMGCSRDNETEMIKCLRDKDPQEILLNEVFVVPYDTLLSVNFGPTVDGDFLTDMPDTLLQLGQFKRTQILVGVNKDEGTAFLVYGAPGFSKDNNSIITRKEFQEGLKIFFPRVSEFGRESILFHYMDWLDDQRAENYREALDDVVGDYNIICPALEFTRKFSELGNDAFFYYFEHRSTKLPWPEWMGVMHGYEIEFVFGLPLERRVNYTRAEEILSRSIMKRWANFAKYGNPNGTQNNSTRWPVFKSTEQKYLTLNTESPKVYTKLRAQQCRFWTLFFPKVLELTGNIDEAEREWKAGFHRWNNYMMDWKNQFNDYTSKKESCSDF
T5 sequence (O42275 24-633): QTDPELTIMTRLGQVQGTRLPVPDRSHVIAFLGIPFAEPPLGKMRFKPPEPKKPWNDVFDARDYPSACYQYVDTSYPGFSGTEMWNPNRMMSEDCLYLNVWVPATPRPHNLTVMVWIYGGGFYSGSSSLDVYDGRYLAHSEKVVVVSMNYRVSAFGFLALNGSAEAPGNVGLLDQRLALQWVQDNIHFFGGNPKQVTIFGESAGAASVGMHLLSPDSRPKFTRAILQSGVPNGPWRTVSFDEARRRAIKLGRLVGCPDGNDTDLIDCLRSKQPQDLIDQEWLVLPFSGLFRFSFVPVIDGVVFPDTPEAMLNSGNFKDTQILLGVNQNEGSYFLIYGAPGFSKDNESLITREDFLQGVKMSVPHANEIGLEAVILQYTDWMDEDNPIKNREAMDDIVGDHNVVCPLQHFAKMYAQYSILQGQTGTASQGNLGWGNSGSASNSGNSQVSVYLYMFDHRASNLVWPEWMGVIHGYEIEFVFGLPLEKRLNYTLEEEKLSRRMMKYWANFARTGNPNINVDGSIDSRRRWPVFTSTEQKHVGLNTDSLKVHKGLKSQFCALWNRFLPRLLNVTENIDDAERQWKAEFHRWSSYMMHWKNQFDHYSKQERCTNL

Compound	IC50 (equine serum BChE) [µM]	Ki [1] [µM]	Rate of Tb+MAP Polymerization (dA355/dt) [2] [%]	inhibition at 20 µM (porcine liver CES) [%]	Rate of Ca2+-Induced Mitochondrial Swelling (dA620/dt) [3] [%]	Ki [4] [µM]	% of Displacement of Propidium Iodide from the PAS of EeAChE (PAS of EeAChE) [%]	IC50 (human erythrocyte AChE) [µM]	Increase of the rate of Tb+MAP polymerization, factor [2]	inhibition at 20 µM (human erythrocyte AChE) [%]	inhibition at 20 µM (equine serum BChE; read-out: % of inhibition of BChE with 20 µM concentration of the compound, 20 µM compound) [%]	IC50 (porcine liver CES; 5 min incubation, mean ± SEM, n = 3) [µM]
Cc1ccc2c(c1)c1c(n2CCNC23CC4CC(C)(CC(C)(C4)C2)C3)CCN(C)C1.Cl.Cl [Compound 4b, N-(2-(2,8-Dimethyl-3,4-dihydro-1H-pyrido[4,3-b]indol-5(2H)-yl)ethyl)-3,5-dimethyladamantane-1-amine dihydrochloride]	5.07 ± 0.09	8.8 ± 1	153 ± 33	10.4 ± 0.5	39 ± 7	7.9 ± 0.8	14.7 ± 0.9	50.3 ± 3.4				
CN1CCc2c(c3cc(F)ccc3n2CC(=O)NC23CC4CC(C)(CC(C)(C4)C2)C3)C1.Cl [Compound 8c, N-(3,5-Dimethyladamantan-1-yl)-2-(8-fluoro-2-methyl-3,4-dihydro-1H-pyrido[4,3-b]indol-5(2H)-yl)acetamide hydrochloride]	6 ± 0.06	110 ± 10.8	359 ± 25	8.4 ± 0.9	63 ± 25	80.6 ± 8.5			> 3.5	17.3 ± 0.8		
CN1CCc2c(c3ccccc3n2CCNC23CC4CC(CC(C4)C2)C3)C1.Cl.Cl [Compound 4d, N-(2-(2-Methyl-3,4-dihydro-1H-pyrido[4,3-b]indol-5(2H)-yl)ethyl)adamantane-1-amine dihydrochloride]	2.48 ± 0.22	4.4 ± 0.3	162 ± 19	2.9 ± 0.8	35 ± 13	3.3 ± 0.3	10.1 ± 0.9	112 ± 5				
Cc1ccc2c(c1)c1c(n2CC(=O)NC23CC4CC(CC(C4)C2)C3)CCN(C)C1.Cl [Compound 8e, N-(Adamantan-1-yl)-2-(2,8-dimethyl-3,4-dihydro-1H-pyrido[4,3-b]indol-5(2H)-yl)acetamide hydrochloride]	43.2 ± 2.9	105 ± 10	133 ± 28	9.9 ± 1.5	49 ± 12	72.7 ± 6.6	1.2 ± 0.1			13.5 ± 0.9		
CN1CCc2c(c3ccccc3n2CC(=O)NC23CC4CC(CC(C4)C2)C3)C1.Cl [Compound 8d, N-(Adamantan-1-yl)-2-(2-methyl-3,4-dihydro-1H-pyrido[4,3-b]indol-5(2H)-yl)acetamide hydrochloride]	26.5 ± 0.4	79.1 ± 7.1	128 ± 15	8.8 ± 1.2	45 ± 17	49.5 ± 4.5	1.4 ± 0.2			5.4 ± 1		
CN1CCc2c(c3cc(F)ccc3n2CCNC23CC4CC(CC(C4)C2)C3)C1.Cl.Cl [Compound 4f, N-(2-(8-Fluoro-2-methyl-3,4-dihydro-1H-pyrido[4,3-b]indol-5(2H)-yl)ethyl)adamantane-1-amine dihydrochloride]	2.53 ± 0.1	5.1 ± 0.5	356 ± 14	8.6 ± 1.7	42 ± 8	5.4 ± 0.6	17.8 ± 1.5	13.6 ± 1.3	> 3.5			
Cc1ccc2c(c1)c1c(n2CCNC23CC4CC(CC(C4)C2)C3)CCN(C)C1.Cl.Cl [Compound 4e, N-(2-(2,8-Dimethyl-3,4-dihydro-1H-pyrido[4,3-b]indol-5(2H)-yl)ethyl)adamantane-1-amine dihydrochloride]	9.05 ± 0.8	8.2 ± 0.9	239 ± 21	2.5 ± 0.5	42 ± 9	10.3 ± 1.6	15.1 ± 1.2	63.3 ± 3.3				
CC12CC3CC(C)(C1)CC(N)(C3)C2 [memantine, reference compound]			89 ± 7	3 ± 0.4	70 ± 9					1.3 ± 0.2	13.7 ± 1.5	
CN1CCc2c(c3cc(F)ccc3n2CC(=O)NC23CC4CC(CC(C4)C2)C3)C1.Cl [Compound 8f, N-(Adamantan-1-yl)-2-(8-fluoro-2-methyl-3,4-dihydro-1H-pyrido[4,3-b]indol-5(2H)-yl)acetamide hydrochloride]	17.1 ± 1.3	73.8 ± 7	154 ± 14	6.2 ± 0.6	61 ± 24	47.3 ± 4.7				22.1 ± 1.8		
CN1CCc2c(c3ccccc3n2CCNC23CC4CC(C)(CC(C)(C4)C2)C3)C1.Cl.Cl [Compound 4a, 3,5-Dimethyl-N-(2-(2-methyl-3,4-dihydro-1H-pyrido[4,3-b]indol-5(2H)-yl)ethyl)-adamantane-1-amine dihydrochloride]	0.666 ± 0.037	1.7 ± 0.2	126 ± 9	15.6 ± 0.3	33 ± 4	1.9 ± 0.2	12.5 ± 1.1			19.5 ± 0.3		
Cc1ccc2c(c1)c1c(n2CCc2ccc(C)nc2)CCN(C)C1 [dimebon, reference compound]		77.2 ± 5.7	162 ± 23		36 ± 11	50.4 ± 4.3	4.1 ± 0.3					
O=[N+]([O-])c1ccc(OP(=O)(O)Oc2ccc([N+](=O)[O-])cc2)cc1 [BNPP, bis-4-nitrophenyl phosphate, reference compound]												1.8 ± 0.11
CN1CCc2c(c3ccccc3n2CC(=O)NC23CC4CC(C)(CC(C)(C4)C2)C3)C1 [Compound 8a, 3,5-Dimethyladamantan-1-yl)-2-(2-methyl-3,4-dihydro-1H-pyrido[4,3-b]indol-5(2H)-yl)acetamide hydrochloride]	9.66 ± 0.52	113 ± 10.4	237 ± 55	5.2 ± 1.2	42 ± 21	63.5 ± 5.8				7.1 ± 0.5		
